According to patent US9433595B2, “Phytoestrogenic compositions for preventing or treating symptoms associated with menopause” (Natural Endotech Co., Ltd., priority 2008, dated 2016):

Test system: SaOS-2 cells
Assay: Estrogen-specific ALP (alkaline phosphatase) induction in SaOS-2 osteoblast cells
Assay type: cell-based
Details: conclusion drawn from ALP induction in SaOS-2 cells
Method: To verify the effect of the compound of the present invention, non-reproductive tract target tissue response was carried out for measuring estrogenecity. […]
In this regard, the estrogenic activity of the compounds of the experimental groups as described above in the Example 1 was analyzed using SaOS-2 cells in this study.
For experiments, SaOS-2 cell line was purchased from Korean Type Culture Collection (KTCC). […] Thereafter, 50 μl of cell lysis buffer (100 mM Tris, 100 mM NaCl, 1 mM EDTA) was added to the culture media of each well and then, 150 μl of 30 mM p-nitrophenyl phosphate (Merk, Germany) was thoroughly mixed with shaking, followed by measuring the absorbance at 405 nm for 10 min at an interval of 50 sec. ALP induction was calculated as follows: % induction=[(Slopesample)/(Slope17β-estradiol)]×100. […]

Row | SMILES | estrogenic activity
1 | O=C(O)/C=C/c1ccccc1 [cinnamic acid] | remarkable estrogenic activity
2 | COC(=O)C1=CO[C@@H](O[C@H]2O[C@@H](CO)[C@H](O)[C@@H](O)[C@@H]2O)C2C1[C@H](O)C[C@]2(C)O (some centres unmarked) [shanzhiside methylester] | remarkable estrogenic activity
